The text below walks through data of patent US4045433A, “1,3,4,5-Tetrahydro-2H-1,4-benzodiazepin-2-ones” (priority 1974, dated 1977).

Structures are written as SMILES. Entries after “also recorded” stand apart in the source; their conditions may differ.

Data set [1] has as its system CFLP mice. The experiment in a line: Antimetrazole activity (protection from tonic extensor spasm). It is filed as in vivo. Here is the method:
1. The first series of examinations was carried out according to the method of Everett and Richards (Everett G. M., Richards R. K.: J. Pharm. Exp. Ther. 81, 402 (1944)). 125 mg./kg. of metrazole were administered subcutaneously to the test animals. 1 hour after the administration the animals protected from tonic extensor spasm and the surviving animals were counted.

For data set [2], the system named is CFLP mice. The data set is described as follows: Maximum electroshock (anti-electroshock activity). It counts as in vivo. The settings on record: Mus musculus, po, 1 h, p.o., 1 hour before test; 100 Hz, 30 V, 0.2 sec.; read-out: Anti-electroshock activity ED50. From the text: 2. Maximum electroshock stimulus (100 Hz, 30 V, 0.2 sec.) was applied according to the method of Swinyard et al. (Swinyard E. A., Brown W. C., Goodman, L. S.: J. Pharmacol. 106, 319 (1952)). The animals showing no tonix extension on the hind limb upon stimulus were considered as protected.

Data set [3] concerns CFLP mice. The data set is described as follows: Antagonism of strychnine spasm. It is filed as in vivo. The protocol: Tonic extensor spasm was produced by administering an intraperitoneal dosage of 2 mg./kg. of strychnine to the animals (Kerley T. L., Richards A. G., Begley, R. W., Abren, B. E. and Weaver, L. C: J. Pharmacol. Exp. Ther. 132, 360 (1961)). The animals showing no spasm were considered as protected.

Data set [4] can be described thus: Rotarod test (muscle incoordination and ataxia). It is filed as in vivo, CFLP mice. The settings on record: mouse, in vivo, po, 1 hour before test; 12/min., 120 sec.; read-out: Rotarod test ED50. Here is the method:
(§1) a. Rotarod test: The test was carried out according to the method of Kinnard and Carr (Brit. J. Pharmacol. Exp. Ther. 121, 354 (1957)). […] The ED50 values were calculated from the percentage of the animals falling down within 120 sec.

In data set [5] the test system is CFLP mice. The data set is described as follows: Rotarod test (muscle incoordination and ataxia). It is filed as in vivo. The settings on record: ratio (1) of Table 2, p.o. Here is the method: as §1
The nature of data set [6]: Traction test (muscle incoordination and ataxia). The arrangement: species or system CFLP mice. To be noted: mouse, in vivo, po, 1 hour before test; read-out: Traction test ED50. The protocol:
b. Traction test: The test was carried out according to the method of Theobald et al. (Arch. int. Pharmacodyn. 148, 560 (1964)). The two anterior limbs of the test animals were placed onto a horizontal rod so as to let the animals clutch the rod. […] The ED50 values were calculated from the percentage of the animals showing negative response.

Data set [7] deals with CFLP mice. The data set is described as follows: Narcosis potentiating effect (sodium barbiturate). It is filed as in vivo.
Data set [8] relates to CFLP mice. The data set is described as follows: Disappearance of righting reflex. It counts as in vivo. To be noted: Mus musculus, po.
The nature of the next data set: Acute toxicity. It counts as in vivo, CFLP mice. The settings on record: mouse, in vivo, po; death rate observed for one week; read-out: Acute toxicity (LD50).
In data set [9] the test system is CFLP mice. The experiment in a line: Acute toxicity. It is filed as in vivo. The settings on record: in words.
In data set [10] the test system is CFLP mice. The data set is described as follows: Sedative and muscle relaxant effects (overall assessment). It is filed as in vivo. The settings on record: in words.

In the case of `CN1C(=O)CN(C(N)=O)C(c2ccccc2)c2cc(Cl)ccc21` (racemic) [Compound "A", 1-methyl-4-carbamoyl-5-phenyl-7-chloro-1,3,4,5-tetrahydro-2H-1,4-benzodiazepine-2-one], the ED50 in the data set with CFLP mice [1] (Mus musculus, po, 1 h, p.o., 1 hour before test, metrazole 125 mg./kg. s.c., 95% confidence limit in next line, read-out: Antimetrazole activity ED50) was found to be 0.66 mg/kg; in the data set on CFLP mice [2], 19.3 mg/kg; in the data set on CFLP mice [3] (Mus musculus, po, 1 h, read-out: Antistrychnine activity ED50) it was 26 mg/kg; in the data set on CFLP mice [7] (Mus musculus, po, 1 hour before sodium barbiturate 100 mg./kg. i.p.), 8.8 mg/kg; with CFLP mice [8] it was 1400 mg/kg. Besides, in the data set on CFLP mice [1] (in words, vs Diazepam), the “tetrachor spasm inhibiting effect / anticonvulsive effect compared with Diazepam” value is “practically identical to that of Diazepam”. The “animals protected against metrazole spasm” value in the data set on CFLP mice [1] (single intravenous dosage of 5 mg./kg., 7 hours after administration) is recorded as 50%. Also, the “Antistrychnine ED50 : Antimetrazole” value in the data set with CFLP mice [3] (ratio (2) of Table 2, p.o.) is recorded as 39.4. Besides, the TD50 at 1 h in data set [4] amounted to 6.7 mg/kg; in data set [6], 26.9 mg/kg. Besides, in the data set with CFLP mice [5], the “Rotarod ED50 : Antimetrazole ED50” value was found to be 10.2. For the same molecule, the “Narcosis potentiation ED50 : Antimetrazole ED50” value in the data set on CFLP mice [7] (ratio (3) of Table 2, p.o.) turned out to be 13.3. The LD50 at 168 h in “Acute toxicity” was found to be 1680 mg/kg. Also, the “therapeutic index compared with Diazepam” value in the data set with CFLP mice [9] was “more favourable”. For the same molecule, the “sedative and muscle relaxant effects compared with Diazepam” value with CFLP mice [10] was “provokes muscle relaxation and sedation only in higher dosages; also recorded: much lower”. In addition, the “relation of the effects to those of the reference substances” value in the data set with CFLP mice [10] (vs Chlorodiazepoxide and Diazepam) is on record as “more closely related to those of Chlorodiazepoxide than of Diazepam”. Besides, in the data set on CFLP mice [10] (vs reference substances Diazepam and Chlorodiazepoxide), the “dosages provoking muscle incoordination, muscle relaxation, and narcosis potentiation in relation to the dosage provoking anticonvulsive effect” value is given as “clearly more advantageous than the reference substances”.
